How the values were obtained:
PDE4B1 = molecular target: T1, PDE4B1 (Homo sapiens, UniProt Q07343); test: Effect of compounds on PDE4B1 activity (IMAP fluorescence polarization kit); format: biochemical; details: class symbols
T1 construct: purchased BPS 60041
Description: The IMAP Reaction Buffer containing 0.1% BSA (5×) in the kit was diluted into a 1-fold reaction buffer containing 1 mM DTT. 0.12 nM PDE4B1 (BPS, Cat #60041) was added to the 1-fold reaction buffer to form a 2-fold enzyme solution. 10 μL of the 2-fold enzyme solution was added to wells of a 384-well reaction plate. For the negative control well, 10 μL of the 1-fold reaction buffer was used instead of the enzyme solution. Centrifugation at 1000 rpm for 1 minute and incubation at room temperature for 15 minutes were carried out. 0.2 uM FAM-labeled cAMP (FAM-cAMP, Molecular Device, Cat #R7506) was added to the 1-fold reaction buffer to form a 2-fold substrate solution. 10 μL of the 2-fold substrate solution was added to each well of the 384-well reaction plate. Centrifugation at 1000 rpm for 1 minute was carried out. A reaction was carried out at room temperature for 20 minutes. IMAP Progressive Binding Buffer A (5×), IMAP Progressive Binding Buffer B (5×), and IMAP Progressive Binding Reagent (provided by IMAP FP IPP Explorer Kit) were prepared into a reaction stop solution according to the instructions for use. 60 μL of an […] reaction stop solution was added to each well of the 384-well reaction plate to stop the reaction, and the reaction product was centrifuged at 1000 rpm for 1 minute. Incubation at room temperature in the dark for 60 minutes was carried out. The mP values (Ex480/Em535 (s), Em535 (p)) were read by a microplate reader (Envision).
FP was usually represented by mP value. mP value for FP measurement=1000*(S−G*P)/(S+G*P) • S: fluorescence intensity in parallel direction • P: fluorescence intensity in perpendicular direction • G: G factor=1
[formula] • mP(sample): mP of the test compound in a reaction well • mP(negative control): mP in the negative control well • mP(positive control): mP in the positive control well
According to the calculated inhibition rate at each concentration, the IC50 value of each compound was calculated by XLFit excel add-in version 5.4.0.8 software.
Y=Bottom+(Top−Bottom)/(1+(IC50/X)^HillSlope) Fitting formula: […]

[1] = Inhibition of LPS-induced TNF-α release from human peripheral blood mononuclear cells in vitro; format: cell-based; details: PBMC, hPBMC, 100 ng/mL LPS, 4 h; for IC50: class symbols, read-out: Re IC50 (nM) (relative IC50), TNF-α induced by LPS
Description: Normal human peripheral blood which was anticoagulated (citric acid anticoagulation) was collected, and hPBMCs were prepared by Ficoll-Paque PLUS (Cytiva, Cat #17144002, density 1.077 g/mL). The concentration of hPBMC cells was adjusted to 0.25×10^6 cells/mL with RPMI1640 medium and inoculated into a 96-well plate in an amount of 50000 cells per well. Subsequently, different concentrations of drugs were added for pre-incubation for 1 h (the DMSO final concentration was 0.1%, and the positive and negative control wells had the same volume of RPMI1640 containing 0.1% DMSO). After the pre-incubation was complete, 100 ng/mL LPS (SIGMA, L2630) was added to the compound and positive control wells, and the negative control well had the same volume of RPMI1640 containing 0.1% DMSO. Incubation was carried out for 4 h in an incubator at 37° C. and 5% CO2. The cell supernatant was collected, and the content of TNF-α in the supernatant sample was detected by human TNF-α Elisa quantitative test kit (Sino Biological, Cat #KIT10602). The IC50 value was calculated using GraphPad Prism software.

PDE4D2 = molecular target: T2, PDE4D2 (Homo sapiens, UniProt Q08499); test: Effect of compounds on PDE4D2 activity (fluorescence polarization kit); format: biochemical; details: class symbols
T2 construct: purchased BPS Bioscience 60345
Outline: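 PDE4D2 (0.068 ng/well final) pre-incubated 15 min at room temperature with serially diluted compound, then […] FAM-cAMP (final) added for 30 min. Binding Agent added for 1 h before fluorescence polarization readout (Ex 485/Em 520 nm, mP). Inhibition derived against positive and negative control wells; IC50 from concentration-inhibition data.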

T1 sequence (Q07343 whole entry): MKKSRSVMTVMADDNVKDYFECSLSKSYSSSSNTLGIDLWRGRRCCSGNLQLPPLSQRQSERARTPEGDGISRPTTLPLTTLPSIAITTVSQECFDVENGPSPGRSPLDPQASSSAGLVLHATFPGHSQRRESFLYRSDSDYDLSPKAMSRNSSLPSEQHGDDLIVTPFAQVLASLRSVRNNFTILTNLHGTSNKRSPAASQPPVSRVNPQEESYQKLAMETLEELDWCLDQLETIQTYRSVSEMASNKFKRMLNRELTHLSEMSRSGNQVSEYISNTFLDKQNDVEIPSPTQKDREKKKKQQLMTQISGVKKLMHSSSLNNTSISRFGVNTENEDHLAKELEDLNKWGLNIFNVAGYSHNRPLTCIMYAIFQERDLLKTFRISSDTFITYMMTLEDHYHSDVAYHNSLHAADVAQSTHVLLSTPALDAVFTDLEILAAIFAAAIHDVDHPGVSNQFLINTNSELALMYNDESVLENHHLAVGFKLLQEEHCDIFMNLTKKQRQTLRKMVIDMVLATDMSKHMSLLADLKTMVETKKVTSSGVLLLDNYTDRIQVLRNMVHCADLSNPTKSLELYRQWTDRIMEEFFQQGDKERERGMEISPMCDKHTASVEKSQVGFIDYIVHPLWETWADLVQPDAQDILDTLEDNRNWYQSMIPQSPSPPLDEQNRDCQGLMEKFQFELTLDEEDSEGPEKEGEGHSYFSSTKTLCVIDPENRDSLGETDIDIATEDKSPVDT
T2 sequence (Q08499 303-809): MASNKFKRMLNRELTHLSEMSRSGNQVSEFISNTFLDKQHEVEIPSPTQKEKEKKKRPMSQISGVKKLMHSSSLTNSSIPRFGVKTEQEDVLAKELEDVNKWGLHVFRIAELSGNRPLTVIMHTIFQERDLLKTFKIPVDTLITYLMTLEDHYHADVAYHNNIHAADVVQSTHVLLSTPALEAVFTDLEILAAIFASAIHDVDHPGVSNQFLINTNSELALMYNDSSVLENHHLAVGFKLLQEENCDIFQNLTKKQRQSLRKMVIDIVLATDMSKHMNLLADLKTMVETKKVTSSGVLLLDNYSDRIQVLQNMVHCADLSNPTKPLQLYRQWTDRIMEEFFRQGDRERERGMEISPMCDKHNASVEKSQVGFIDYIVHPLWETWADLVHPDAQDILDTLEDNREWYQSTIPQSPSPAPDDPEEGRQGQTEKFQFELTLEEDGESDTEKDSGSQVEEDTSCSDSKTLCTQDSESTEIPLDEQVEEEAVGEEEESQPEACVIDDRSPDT

| IC50 (PDE4B1) | IC50 [1] | IC50 (PDE4D2) | Compound | Emax ([1]; read-out: Max inhibition (%)) |
| --- | --- | --- | --- | --- |
| < 10 nM | 50 to 100 nM | < 10 nM | [O-][S@+]1CCc2nc(N3C[C@H]4CN(c5ccc6c(c5)CC6)C[C@H]4C3)nc(NC3(CO)CCC3)c21 [Compound 31] | 75.4% |
| < 10 nM | < 10 nM | < 10 nM | C#Cc1cnc(C2=CCN(c3nc4c(c(NC5(CO)CCC5)n3)[S+]([O-])CC4)CC2)nc1 (stereo not shown) [Compound 37] |  |
